The values below come from patent US4536493A, “Saturated aminocyclitol derivatives, their preparation and medicaments containing these compounds” (Baker Aktiengesellschaft, priority 1981, dated 1985).

For this test, the target named is T1, saccharase from pig small intestinal mucosa (Sus scrofa, UniProt P56729).
T1 construct: sucrase and isomaltase chains cleaved from one SI precursor
T1 sequence (P56729 with tags, fused parts or gaps): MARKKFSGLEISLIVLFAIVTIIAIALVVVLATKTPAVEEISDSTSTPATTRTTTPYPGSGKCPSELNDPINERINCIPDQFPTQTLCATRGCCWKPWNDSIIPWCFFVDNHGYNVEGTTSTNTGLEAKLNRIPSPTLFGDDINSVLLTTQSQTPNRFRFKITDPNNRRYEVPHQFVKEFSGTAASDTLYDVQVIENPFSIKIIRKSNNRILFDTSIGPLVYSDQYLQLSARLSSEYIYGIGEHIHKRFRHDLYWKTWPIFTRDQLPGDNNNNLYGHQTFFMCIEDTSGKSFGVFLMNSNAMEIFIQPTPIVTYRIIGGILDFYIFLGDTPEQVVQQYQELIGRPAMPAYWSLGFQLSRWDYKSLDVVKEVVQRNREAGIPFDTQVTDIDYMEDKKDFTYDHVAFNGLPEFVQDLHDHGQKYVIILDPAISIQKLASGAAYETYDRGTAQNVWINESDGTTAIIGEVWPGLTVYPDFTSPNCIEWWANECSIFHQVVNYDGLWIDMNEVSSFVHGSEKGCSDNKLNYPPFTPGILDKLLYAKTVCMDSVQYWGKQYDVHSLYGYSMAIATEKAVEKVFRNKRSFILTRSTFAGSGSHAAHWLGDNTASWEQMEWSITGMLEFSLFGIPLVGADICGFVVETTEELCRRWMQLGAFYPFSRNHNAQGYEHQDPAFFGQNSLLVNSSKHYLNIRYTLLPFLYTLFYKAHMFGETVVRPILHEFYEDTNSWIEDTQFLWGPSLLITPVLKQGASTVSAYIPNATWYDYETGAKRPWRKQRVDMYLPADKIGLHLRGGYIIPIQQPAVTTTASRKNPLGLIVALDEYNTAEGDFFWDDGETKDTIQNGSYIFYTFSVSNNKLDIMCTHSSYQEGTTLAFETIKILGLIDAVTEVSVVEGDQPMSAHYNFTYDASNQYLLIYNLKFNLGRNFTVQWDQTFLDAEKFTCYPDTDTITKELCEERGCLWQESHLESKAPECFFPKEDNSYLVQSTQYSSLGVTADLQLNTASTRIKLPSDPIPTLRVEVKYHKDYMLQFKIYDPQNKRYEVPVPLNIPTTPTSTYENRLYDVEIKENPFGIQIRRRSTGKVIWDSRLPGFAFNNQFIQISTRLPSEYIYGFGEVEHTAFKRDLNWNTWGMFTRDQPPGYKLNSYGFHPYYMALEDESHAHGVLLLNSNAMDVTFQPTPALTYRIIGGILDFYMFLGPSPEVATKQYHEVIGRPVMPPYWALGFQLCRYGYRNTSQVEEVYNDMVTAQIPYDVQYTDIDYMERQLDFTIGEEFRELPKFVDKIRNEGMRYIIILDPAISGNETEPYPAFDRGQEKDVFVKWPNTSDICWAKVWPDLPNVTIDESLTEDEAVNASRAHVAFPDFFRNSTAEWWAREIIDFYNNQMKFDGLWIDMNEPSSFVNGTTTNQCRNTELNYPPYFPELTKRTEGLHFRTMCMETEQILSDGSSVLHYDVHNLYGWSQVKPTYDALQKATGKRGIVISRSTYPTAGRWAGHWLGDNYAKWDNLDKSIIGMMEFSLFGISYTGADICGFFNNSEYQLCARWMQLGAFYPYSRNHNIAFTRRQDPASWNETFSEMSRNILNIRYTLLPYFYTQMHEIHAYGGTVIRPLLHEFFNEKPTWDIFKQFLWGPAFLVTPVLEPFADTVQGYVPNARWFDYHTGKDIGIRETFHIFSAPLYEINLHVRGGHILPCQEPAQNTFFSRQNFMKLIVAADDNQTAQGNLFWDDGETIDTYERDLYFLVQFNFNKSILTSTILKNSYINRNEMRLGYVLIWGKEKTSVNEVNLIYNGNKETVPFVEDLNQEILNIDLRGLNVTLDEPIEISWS
The experiment in a line: Saccharase inhibition test in vitro. In kind it is biochemical. The note with it: solubilised saccharase 0.12 SU, sucrose substrate, 0.1 M sodium maleate buffer pH 6.0, 35° C.; 1 SIU = amount inhibiting two saccharase units by 50%. The procedure: A saccharase inhibitor unit (SIU) is defined as the amount of inhibitor which inhibits two saccharase units to the extent of 50%. A saccharase unit (SU) is the amount of enzyme which cleaves 1 μmol of sucrose into glucose and fructose in one minute under the test conditions given below. […] To perform the tests, 0.05 ml of a solution of saccharase^(1) which had been set at 0.12 SU was mixed with 0 to 20 μg of inhibitor or 0 to 20 μl of the solution for testing and made up with 0.1 M sodium maleate buffer of pH 6.0 or 0.1 ml. The mixture was equilibrated for 10 minutes at 35° C. and then mixed with 0.1 ml of a 0.05 M solution of sucrose in 0.1 M sodium maleate buffer of pH 6.0 pre-warmed to 35° C. After incubation for 20 minutes at 35° C., the saccharase reaction was stopped by addition of 1 ml of glucose oxidase reagent^(2), and incubation was continued for 30 minutes at 35° C. Thereafter 1 ml of 50% strength H2 SO4 was added and measured at 545 nm against an appropriate blank. For evaluation, the percentage inhibition of the saccharase employed is calculated and, with the aid of a glucose calibration curve, converted from the 50% inhibition point to SIU/g or SIU/liter. (1) Solubilised saccharase from pig small intestinal mucosa according to B. Borgstrom, A. Dahlquist, Acta Chem. Scand. 12, (1958), page 1997. Diluted with 0.1 M sodium maleate buffer of pH 6.0 to the appropriate SU content. (2) The glucose oxidase reagent is prepared by dissolving 2 mg of glucose oxidase (Boehringer No. 15423) in 100 ml of 0.565 M tris-HCl buffer of pH 7.0 and subsequently adding 1 ml of detergent solution (2 g of Triton X 100+8 g of 95% strength ethanol AR), 1 ml of dianisidine solution (260 mg of o-dianisidine 0.2 HCl in 20 ml of H2 O) and 0.5 ml of 0.1% strength aqueous peroxidase solution (Boehringer No. 15302).
`C[C@H]1O[C@H](O[C@H]2[C@H](O)[C@@H](O)[C@@H](O[C@H]3[C@H](O)[C@@H](O)C(O)O[C@@H]3CO)O[C@@H]2CO)[C@H](O)[C@@H](O)[C@@H]1N[C@H]1C[C@H](CO)[C@@H](O)[C@H](O)[C@H]1O` (stereo partly shown) [Example 1]: the “Effectiveness in the saccharase inhibition test in vitro (saccharase inhibitor units per g)” value is reported as 59 829 SIU/g.

Regarding `COC1O[C@H](C)[C@@H](N[C@H]2C=C(CO)[C@@H](O)[C@H](O)[C@H]2O)[C@H](O)[C@H]1O` (stereo partly shown), the “Effectiveness in the saccharase inhibition test in vitro (saccharase inhibitor units per g)” value is given as 38 850 SIU/g.

For the molecule `COC1O[C@H](C)[C@@H](N[C@H]2C[C@H](CO)[C@@H](O)[C@H](O)[C@H]2O)[C@H](O)[C@H]1O` (stereo partly shown) [Example 2], the “Effectiveness in the saccharase inhibition test in vitro (saccharase inhibitor units per g)” value is 38 850 SIU/g.

`C[C@H]1O[C@H](O[C@H]2[C@H](O)[C@@H](O)[C@@H](O[C@H]3[C@H](O)[C@@H](O)C(O)O[C@@H]3CO)O[C@@H]2CO)[C@H](O)[C@@H](O)[C@@H]1N[C@H]1C=C(CO)[C@@H](O)[C@H](O)[C@H]1O` (stereo partly shown) [acarbose]: the “Effectiveness in the saccharase inhibition test in vitro (saccharase inhibitor units per g)” value was 77 700 SIU/g.
